Assay results taken from patent US20020147187A1, “1,2-diphenyl-1-naphthyl ethene derivatives, analogs and use thereof” (priority 2001, published 2002).

Columns and labels:
[1] = target: T1, human recombinant estrogen receptor alpha (Homo sapiens, UniProt P03372); assay: Estrogen receptor alpha binding assay ([3H] Estradiol displacement); conditions: IC50 Value, Estrogen Receptor Subtype Alpha, displacement of 0.5 nM [3H] Estradiol, 4.5 ng receptor protein, 2 hours at 25° C.
T1 sequence (P03372 1-595): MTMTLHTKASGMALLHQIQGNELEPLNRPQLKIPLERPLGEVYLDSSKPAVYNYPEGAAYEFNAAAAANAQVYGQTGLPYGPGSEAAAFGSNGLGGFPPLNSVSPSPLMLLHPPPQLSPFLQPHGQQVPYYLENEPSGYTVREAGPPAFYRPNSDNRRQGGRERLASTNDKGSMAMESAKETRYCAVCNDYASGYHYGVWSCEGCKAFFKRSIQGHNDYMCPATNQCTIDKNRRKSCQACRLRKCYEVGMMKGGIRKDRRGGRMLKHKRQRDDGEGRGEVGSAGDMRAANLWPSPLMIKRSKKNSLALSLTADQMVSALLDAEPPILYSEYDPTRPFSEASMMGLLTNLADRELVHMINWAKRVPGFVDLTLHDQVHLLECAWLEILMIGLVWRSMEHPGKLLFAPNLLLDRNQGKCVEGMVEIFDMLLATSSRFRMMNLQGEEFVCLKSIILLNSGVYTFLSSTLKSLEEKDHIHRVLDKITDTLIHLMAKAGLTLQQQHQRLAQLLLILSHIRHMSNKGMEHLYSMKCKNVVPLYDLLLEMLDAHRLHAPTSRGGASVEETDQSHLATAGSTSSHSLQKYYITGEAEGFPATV
Experimental: The stable expression of these individual receptor subtypes in cells provides a rapid and accurate means of quantifying the direct interaction of a test article with the estrogen binding sites. Briefly, this assay is conducted in 96 well plates where a series of concentrations of the test article are used to displace tritiated estradiol from either estrogen receptor alpha or estrogen receptor beta bearing cell membranes, under equilibrium conditions. […] This measurement is the primary test for mediation of the estrogen receptor and can also be used to measure the relative selectivity of the test article for either the alpha or beta subtype.
The alpha subtype assay measures the binding of [^3H] Estradiol to the human recombinant estrogen receptor. […] Membranes are filtered and washed 3 times, and the filters are counted to determine [^3H] Estradiol specifically bound. […] The measurement of the displaced tritiated estradiol allows the determination of an IC50 value, a direct measure of the test articles' interaction with the estrogen receptor alpha.

[2] = target: human recombinant estrogen receptor beta (Homo sapiens, UniProt Q92731); assay: Estrogen receptor beta binding assay ([3H] Estradiol displacement); conditions: displacement of 0.5 nM [3H] Estradiol, 7.5 ng receptor protein, 2 hours at 25° C.; read-out: IC50 Value, Estrogen Receptor Subtype Beta
Chain of human recombinant estrogen receptor beta (Q92731 whole entry): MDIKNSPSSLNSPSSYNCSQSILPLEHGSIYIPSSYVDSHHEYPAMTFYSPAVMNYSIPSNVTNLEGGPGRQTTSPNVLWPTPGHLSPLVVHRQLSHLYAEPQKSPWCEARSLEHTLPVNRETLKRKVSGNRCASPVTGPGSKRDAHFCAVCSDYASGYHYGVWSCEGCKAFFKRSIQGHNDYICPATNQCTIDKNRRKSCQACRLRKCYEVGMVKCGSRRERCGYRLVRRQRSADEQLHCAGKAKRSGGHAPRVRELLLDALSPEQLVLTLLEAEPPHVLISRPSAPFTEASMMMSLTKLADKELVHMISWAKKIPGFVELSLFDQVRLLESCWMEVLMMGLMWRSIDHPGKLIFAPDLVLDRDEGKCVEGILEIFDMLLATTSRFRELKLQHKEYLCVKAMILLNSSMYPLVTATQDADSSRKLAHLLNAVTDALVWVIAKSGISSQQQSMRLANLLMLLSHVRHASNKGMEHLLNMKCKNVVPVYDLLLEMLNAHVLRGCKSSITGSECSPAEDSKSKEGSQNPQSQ

MCF-7 cells = assay: MCF-7 cell proliferation assay (estradiol stimulated versus unstimulated, MTT); format: cell-based, human; conditions: estradiol stimulated versus unstimulated MCF-7 cells, FIG. 1
Experimental: Those skilled in the art will appreciate that several acceptable estrogen receptor-binding assays are known and available for initial screening of the compounds of the present invention. The initial screen chosen for detecting anti-estrogenic/estrogenic activity was a human cell line assay, namely the MCF-7 cell proliferation assay. MCF-7 cells are estrogen-receptor positive (ER+) cancer cells that respond to estradiol stimulation. Anti-estrogenic activity is measured in terms of a test article's ability to inhibit estradiol stimulated proliferation, implying an antagonistic action on the estrogen receptor and estrogenic activity can be inferred from increased proliferation. The following testing procedure was used.
MCF-7 cells were maintained in a RPMI medium, free of phenol red, and supplemented with 5% charcoal-stripped foetal calf serum, hydrocortisone, bovine insulin, penicillin and streptomycin until they reached 70% confluence. […] Cell survival was evaluated after 3-6 days, by replacing the culture media with 150 μl of fresh medium containing 10 mM 4-(2-hydroxyethyl)-1-piperazineethamsulfonic acid buffer (pH 7.4) followed by the addition of 50 μl of 2.5 mg/ml of 3-(4,5-dimethylthiazo-2-yl)-2,5-diphenyltetrazolium bromide (MTT). […] Plates were shaken for 15 minutes and the absorbance was determined at 570 nm with a microplate reader (BIORAD, model 450). […]

For `C/C(=C(/c1ccc(O)cc1)c1cccc2cc(O)ccc12)c1ccc(OCCN2CCCC2)cc1` [Formula II, (E)-5-[1-(4-hydroxyphenyl)-2-[4-(2-pyrrolidin-1-yl-ethoxy)-phenyl]-propenyl]-naphthalen-2-ol], the IC50 [1] was 5.54 nM, the IC50 [2] was 75 nM and the “effect on estradiol stimulated proliferation of MCF-7 cells (shift in dose-response curve)” value (MCF-7 cells) was “antagonizing the effect of estradiol”.
